Experimental data from patent US5077195A, “Polypeptides complementary to peptides or proteins having an amino acid sequence or nucleotide coding sequence at least partially known and methods of design therefor” (Board of Reagents, The University of Texas System, priority 1986, dated 1991).
“And” between values parts separate entries of the source, which are not always exact repeats. Equal values may be shown once. Where no end group is shown, it is not given here.

Legend:
[1] = tested on: angiotensin II receptors; test: Binding of [^125 I] angiotensin II to isolated hepatic receptor; set-up: species or system Rabbit; details: concentration that inhibits binding of radiolabelled angiotensin II by 50%; 0.25 nM label; 60 minutes at 20° C.
Protocol: Rabbit livers were homogenized, and were centifuged in order to isolate particles sedimenting between 1,000 and 100,000 xg. Binding activity was solublized with 1% digitonin, followed by ammonium sulfate fractionation between 49 and 65% satuation followed by DEAE- cellulose chromatography at pH 7.5 using a linear gradient between 0.0 and 0.3M KCl.
The reaction is initiated by addition of the receptor and samples are incubated for 60 minutes at 20° C. The reaction is terminated with 1 ml of cold 0.5% charcoal/0.05% Dextran in 100 mM Tris-HCl, pH 7.5.
The complete system under these conditions regularly yields about 10,000 cpm of bound radioactivity.

[2] = biological target: T1, ^125 I-ACTH (Homo sapiens, UniProt P01189); test: Solid-phase binding of ^125 I-ACTH to 5'-3' and 3'-5' complementary peptides
T1 construct: ACTH plates+immunized rabbit immunoglobulin
T1 sequence (P01189 138-176 limits assumed): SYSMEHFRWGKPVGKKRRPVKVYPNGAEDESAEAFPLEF
Protocol: A solid-phase binding assay was used to determine the ability of both the 5'-to-3' and the 3'-to-5'-complementary-RNA-strand peptides (see Examples 1A and 1C) to bind ^125 I-ACTH. The peptides were diluted in phosphate-buffered saline (140 mM-NaCl/3 mM-KCl/0.1% NaN3 /20 mM-phosphate buffer, pH 7.4) to 2 mg/ml, and 0.2 ml/well was placed into poly(vinyl chloride) micro-titre plates (Becton and Dickinson, Oxnard, CA, U.S.A.). After 18 h at 4° C., unbound peptide was removed by washing three times with phosphate-buffered saline containing 0.1% bovine serum albumin (Sigma Chemical Co., St. Louis, MO, U.S.A.). ^125 I-ACTH was diluted to various concentrations with phosphate-buffered saline containing 0.1% bovine serum albumin and incubated in peptide-coated wells for 60 minutes at 4° C. […] After incubation, unbound radiolabel was washed out with phosphate-buffered saline containing 0.1% bovine serum albumin, and the radioactivity of individual wells was measured by gamma-radiation counting. The amount of specifically bound radioactivity was determined by blocking ^125 I-ACTH binding with unlabelled ACTH. Additional controls included coating wells with insulin or bovine serum albumin (2 mg/ml) before the addition of the ^125 I-ACTH.

[3] = tested on: 3'-5' HTCA; test: ELISA binding of immunoglobulins to 3'-5' HTCA-coated plates; details: Plates coated with 3'-5' HTCA; antibody 0.11 mg/ml
Protocol: (§1) Two peptides complementary to ACTH, described in Examples 1B and 1C as HTCA and 3'-5' HTCA, were each coupled to Keyhole Limpet Hemocyanin (KLH) with glutaraldeyde (1 mg peptide, 1 mg KLH, 30 mM glutaraldehyde for 30 minutes at room temperature followed by dialysis) to prepare antigens for rabbit immunization. Two rabbits were injected separately with 250 ug of peptide-KLH antigens weekly for four weeks. Each rabbit was bled biweekly for three weeks following the last injection. Antibodies representing the total immunoglobulin from serum of each rabbit was purified by precipitation from serum with 50% saturated ammonium sulfate at 4° C. followed by standard ion exchange chromatography on a DEAE column.
To examine the binding of each of the immunoglobulins to each of the peptides, enzyme-linked immunosorbant assays were performed. In these assays, one of the complementary peptides was coated onto polycarbonate plates in a carbonate coating buffer at pH 9.0 overnight. Unbound peptide was removed by washing three times with phosphate buffered saline (PBS)-TWEEN 20. […] The amount of remaining secondary antibody was determined by reacting p-nitrophenyl phosphate with the remaining aklaline phosphatase enzyme for 15 minutes, stopping the reaction with 3M NaOH, and measuring nitrophenol produced spectrophotometrically at 490 nm.

[4] = tested on: HTCA; test: ELISA binding of immunoglobulins to HTCA-coated plates; details: Plates coated with HTCA
Protocol: as §1
To examine the binding of each of the immunoglobulins to each of the peptides, enzyme-linked immunosorbant assays were performed. In these assays, one of the complementary peptides was coated onto polycarbonate plates in a carbonate coating buffer at pH 9.0 overnight. Unbound peptide was removed by washing three times with phosphate buffered saline (PBS)-TWEEN 20. Various amounts of immunoglobulins were added to peptide-coated wells in PBS-TWEEN 20 solution and incubated for one hour. Unbound immunoglobulin was removed by washing with PBS-TWEEN 20. To each well was added a 1:300 dilution of goat anti-rabbit IgG coupled to alkaline phosphatase enzyme. After one hour the wells were washed with PBS-TWEEN 20 to remove unbound secondary antibodies. The amount of remaining secondary antibody was determined by reacting p-nitrophenyl phosphate with the remaining aklaline phosphatase enzyme for 15 minutes, stopping the reaction with 3M NaOH, and measuring nitrophenol produced spectrophotometrically at 490 nm.

[5] = biological target: T2, I^125 ACTH (1-39) (Homo sapiens, UniProt P01189); test: ^125 I-ACTH binding to peptide-coated microtiter wells
T2 construct: I^125 ACTH (1-39) (New England Nuclear Boston, MA); purchased New England Nuclear (Boston, MA)
T2 sequence (P01189 138-176 limits assumed): T1 sequence (P01189 138-176 limits assumed)
Protocol: Utilizing techniques described in Example 1B, polyvinyl microtiter wells were coated with 3'-5' HTCA from a 1 mM solution thereof or with BSA.
The BSA and 3'-5' HTCA coated wells were washed and then treated with one of three solutions of I^125 ACTH (1-39) (New England Nuclear Boston, MA) having different concentrations. After a forty five minute incubation period the solution was removed and the microtiter wells extensively washed. The microtiter wells were separated and assayed for iodine^125content in a Beckman Gamma 5500 gamma counter. Bound ^125 I-ACTH was measured in duplicate at three concentrations in the absence and presence of excess unlabelled ACTH.
Utilizing the cRNA sequence and HTCA sequence shown in Table 8 of Example 1A, a series of peptides having a carboxy-terminal portion of the HTCA amino acid were synthesized. A pentamer (5-mer) contained the amino acid sequence: H2 N-Phe-His-Gly-Val-Arg-COOH. A decamer (10-mer) contained the amino acid sequence: H2 N-[…]COOH. A twenty membered peptide (20-mer) contained the amino acids sequence: H2 N-[…] Val-Arg-COOH. Each of thes peptides was used to coat microtiter wells and the coated wells tested for the ability to bind ^125 I-ACTH as described in Example 1C.
A 24-mer HTCA variant (R-HTCA) with reversed amino acid sequence directionality (amino-terminal and carboxy-terminal ends being reversed) was synthesized and had the following sequence: H2 N-[…] Arg-His-Leu-His-Val-Gly-COOH. The well-coating and ^125 I-ACTH binding procedures were performed as described in Example 1-C and the resultant data shown in Table 11.

Row | Substance | ID50 [1] | effectiveness in binding ACTH (in words) [2] | Absorbance at 490 nm [3] | Absorbance at 490 nm ([4]; antibody 0.04 mg/ml) | Absorbance at 490 nm ([4]; antibody 0.11 mg/ml) | Absorbance at 490 nm ([4]; antibody 0.3 mg/ml) | Absorbance at 490 nm ([4]; antibody added 0.012 mg/ml) | binding of ^125 I-ACTH to coated wells (in words) [5] | Bound CPM - ^125 I-ACTH ([5]; 1:3 dilution ^125 I-ACTH) | Bound CPM - ^125 I-ACTH ([5]; 1:3 dilution ^125 I-ACTH, + Excess ACTH) | Bound CPM - ^125 I-ACTH ([5]; 1:9 dilution ^125 I-ACTH, + Excess ACTH) | Bound CPM - ^125 I-ACTH ([5]; conc ^125 I-ACTH) | Bound CPM - ^125 I-ACTH ([5]; conc ^125 I-ACTH, + Excess ACTH)
1 | Ac-KGVYIHAL-NH2 [CCA-AII (Ac, Am), Ac--LYS--GLY--VAL--TYR--ILE--HIS--ALA--LEU--Am] | 3,100 nM |  |  |  |  |  |  |  |  |  |  |  | 
2 | RMRYLVKATPFGHPFFAAGHFHMG [3'-5' HTCA] |  | equally effective in binding ACTH | 0.89 ± 0.23 | 0.24 ± 0.08 | 0.37 ± 0.09 | 0.91 ± 0.11 | 0.08 ± 0.04 | binds to coated 3'-5' HTCA | 601 CPM and 590 CPM | 287 CPM and 299 CPM | 191 CPM and 183 CPM | 1819 CPM and 1716 CPM | 616 CPM and 615 CPM
